Assay results: patent US20170327556A1, “CARTILAGE-BINDING FUSION PROTEINS” (Merrimack Pharmaceuticals, Inc., priority 2013, published 2017)
Entries after “also recorded” stand apart in the source; their conditions may differ.

Columns and labels:
[1] = test system: bovine cartilage explants; assay: In vitro joint disease model (IL-1), explanted bovine cartilage: sGAG loss; type: cell-based; conditions: for cartilage matrix loss (% sGAG loss): 13.3 nM supplied in every medium change, IL-1, relative to Disease control; for cartilage matrix loss (% sGAG loss), 4 days versus 12 days of treatment: protein in medium day 0-4 only versus 12 days, IL-1, FIG. 7
Description: (§1) Bovine cartilage explants (3 mm diameter, 1.2 mm thick) are harvested from the femoral patellar groove of 2-4 week old bovine calves. Knee joints are mounted by removing all tissue surrounding the femur, removing the femoral head with a bone saw or hack saw, and clamping in a tissue vice. Joints are aseptically opened, removing the patella, tibia and fibula. Using a 3 mm diameter disposable biopsy punch, approximately 80×3 mm diameter full thickness cartilage cores are punched from the femoral-patellar groove. A sterile knife is used to slice the cores at the cartilage-bone interface. Cores are then inserted into 3 mm diameter holes in a 1.2 mm thick sterile stainless steel plate and sliced flush with the plate using sterile razor blades to remove the excess core length, resulting in 3 mm diameter, 1.2 mm thick cartilage explants with the superficial zone cartilage intact.
(§2) Explants are cultured in 96-well plates in 300 μL of medium consisting of low glucose DMEM (1× Gibco 11885-084), Penicillin-Streptomycin (1×, Gibco 15140-122), ascorbic acid (20 μg/mL, Sigma A4403), proline (400 μM, Sigma P5607-256), non-essential amino acids (1×, Sigma M7145), and HEPES (100 mM, Gibco 15630-080). Explants from three animals (n=2-3 per animal) are used in each treatment condition for a total explant number of 8-9 per condition. Medium is changed every 2 days. On days 6 and 10, the medium is supplemented with 5 μCi/mL of ^35S-sodium sulfate (Perkin Elmer NEX041H001MC, 1 mCi).
(§3) Timepoints are taken at day 8 and 12: explant tissue is washed four times for 30 min each (2 hr total) in 1 mM unlabeled sodium sulfate in PBS. Each explant is weighed wet and frozen at −20° C. until digestion. Tissue digestion was performed with Proteinase K (Roche cat #3115879001) and each explant is digested in 1 mL 100 μg/mL Proteinase K in 50 mM Tris-HCL, 1 mM Calcium Chloride pH=8.0 buffer at 60° C. overnight. Measurement of sGAG content and DNA content is performed using standard assay methods such as those described in Hoemann, 2004, Methods in Molecular Medicine: Cartilage and Osteoarthritis. Totowa, N.J.: Humana Press Inc.; p. 127-52. ^35S-sulfate content of the digested cartilage explants was quantified by mixing 20 μL of digest with 250 μL of scintillation fluid (Perkin Elmer cat #1200-439) and counting with a WALLAC 1450 MICROBETA TRILUX scintillation counter.
(§4) Treatments were given at the following concentrations: wtIGF-1 13.3 nM=100 ng/mL (IGF-1 R&D systems 291-G1); GF-Fus1 (6x-Histidine tagged) 13.3 nM=135 ng/mL; GF-Fus2 (6x-Histidine tagged) 13.3 nM=140 ng/mL; and GF-Fus3 (6x-Histidine tagged)13.3 nM=181 ng/mL. All treatments included IL-1 and were given for either 4 days or the entire culture duration. The outcomes measured were ^35S-sulfate incorporation, DNA content, and sGAG content of plug at endpoint, and sGAG released to media for all media changes. Controls were either no treatment (Healthy) or IL-1 alone at 1 ng/mL (Disease).
(§5) FIG. 4 depicts a graph of cartilage matrix loss as measured by the cumulative percentage of total sGAG lost to the culture medium against time (days). Percentage loss is calculated by dividing the cumulative sGAG in the culture medium by the total sGAG present in the medium over the culture period plus the sGAG remaining in the explant at the end of culture. Cartilage matrix loss was reduced by each IGF fusion protein relative to the disease control at a level similar to wild-type IGF. New cartilage matrix synthesis (i.e. sulfated proteoglycan synthesis is measured by ^35S-Sulfate incorporation) during the final 48 hrs of cultures terminated at day 8 and day 12 is shown in FIGS. 5A and 5B, respectively. Cartilage matrix synthesis was increased compared to disease control by all fusion proteins (GF-Fus1, GF-Fus2, and GF-Fus3) and wild-type IGF when the fusion proteins were supplied in every medium change for the entire culture duration of 8 and 12 days (black bars). […]

[2] = test system: bovine cartilage explants; assay: In vitro joint disease model (IL-1), explanted bovine cartilage: ^35S-sulfate incorporation; type: cell-based; conditions: for cartilage matrix synthesis (^35S-sulfate incorporation): supplied in every medium change for 8 or 12 days, IL-1, final 48 hrs, versus Disease control
Description: as §1, §2, §3, §4, §5

Substance	cartilage matrix loss (% sGAG loss) [1]	cartilage matrix loss (% sGAG loss), 4 days versus 12 days of treatment [1]	cartilage matrix synthesis (^35S-sulfate incorporation) [2]	cartilage matrix synthesis (^35S-sulfate incorporation) after fusion protein removal ([2]; treatment day 0-4 only, measured at day 8 and day 12, IL-1)
GF-Fus1: IGF-1 variant polypeptide Long [R^3]-IGF-1, no fused binding domain; used 6x-Histidine-tagged as control [reference compound]	reduced	higher sGAG loss than 12 days of treatment	increase; also recorded: stimulated cartilage matrix biosynthesis	
GF-Fus3: C-terminal fusion IGF-1(LR3)-PRELP heparin binding domain	reduced	reduced sGAG loss by an equivalent amount	increase; also recorded: stimulated cartilage matrix biosynthesis	highest; also recorded: increased proteoglycan biosynthesis by an equivalent amount; also recorded: largest increase
GF-Fus5: IGF-1(LR3) fused to CNA35 CB domain	reduced		increase	
GF-Fus6: IGF-1(LR3) fused to CNA344 CB domain	reduced		increase	
wtIGF: Wild-type IGF-1 (R&D systems 291-G1), control [reference compound]	reduced		increased	
